# Reference: patent US20160311812A1, “ADENOSINE A1 AGONISTS AS MEDICAMENTS FOR KIDNEY DISORDERS” (BAYER PHARMA AKTIENGESELLSCHAFT, priority 2013, published 2016)
# Assays:
# [1] = system: 5/6 nephrectomy rat model; experiment: Functional and structural renal dysfunction in 5/6 nephrectomized rats; format: in vivo; conditions: 4 weeks; for End organ injury marker concentration in the urine: hFABP / End organ injury marker concentration in the urine: hFABP per creatinine: ELISA; for Kidney injury marker-1 [gene expression] / Lipocalin-2 [gene expression] / Osteopontin [gene expression]: renal cortex
# From the text: (§1) B-3. Effects of Partial A1 Agonists on Renal and Cardiac Function in 5/6 Nephrectomized Rats (Example 1 for Chronic Kidney Disorder)
# (§2) 5/6 nephrectomy in the rat, in which one kidney and the renal cortex of the second kidney are surgically removed (=5/6 of functional kidney tissue) is an established animal model for interstitial renal fibrosis and chronic renal insufficiency [C. Fleck et al., “Suitability of 5/6 nephrectomy (5/6NX) for the induction of interstitial renal fibrosis in rats Influence of sex, strain, and surgical procedure”, Exp. Tox. Pathology 2006, 57, 195-205]. The model is characterized by progressive proteinuria, disturbed tubular electrolyte transport, a reduced glomerular filtration rate, an increase in urinary output, interstitial fibrosis with reactively occurring lymphocyte infiltrates, glomerulosclerosis and tubular atrophy. The level of proteinuria is a specific index of the renal function prognosis: the higher the proteinuria, the greater is the functional and structural kidney injury and therefore progression of chronic to terminal renal insufficiency (uraemia). During monitoring of therapy, e.g. with the ACE inhibitor enalapril, the course of proteinuria provides information on the functional and structural response to the therapy and thus on the renal function prognosis. As a result of the renal insufficiency and accumulation of umemic toxins, in the animals there is secondary development of a umemic cardiomyopathy, depending on the severity associated with hypertension, increased heart rate, reduced parasympathetic tone, myocardial, left-ventricular hypertrophy and fibrosis, diastolic dysfunction and an increased prevalence of arrhythmias [Svilerova et al. 2010 Physiol Res 59: S81-S88).
# (§3) Procedure: male Wistar:WU rats (210-250 g) from Charles River had the left kidney and the renal cortex of the right kidney removed (=SNX) in one session; sham-operated rats served as control group (=SOP). The following groups, each with 12 rats per group, were investigated:
# (§4) Group 2 SNX+placebo (60 g glycerol+100 g water+969 g PEG-400)
# (§5) Group 3 SNX+10 mg/kg body weight/day enalapril (reference therapy, in the drinking water)
# (§6) Group 4 SNX+0.1 mg/kg body weight/day partial A1 agonist EXAMPLE 1, p.o. in placebo
# (§7) Group 5 SNX+1.0 mg/kg body weight/day partial A1 agonist EXAMPLE 1, p.o. in placebo
# (§8) Group 6 SNX+0.3 mg/kg body weight/day partial A1 agonist EXAMPLE 4, p.o. in placebo
# (§9) Group 7 SNX+3.0 mg/kg body weight/day partial A1 agonist EXAMPLE 4, p.o. in placebo
# (§10) Three weeks after 5/6 nephrectomy, the rats developed manifest proteinuria, from this time point the rats were treated for a further four weeks corresponding to the groups stated above. At the end of the protocol, the following samples were obtained/measurements were carried out: eight-hour urine collection with determination of the concentration of hFABP in the urine by ELISA (Rat/Mouse h-FABP ELISA, Hycultbiotech), as marker for end organ damage, invasive measurement of the isoprenaline-induced increase (cumulatively 12.5 ng-250 ng/kg isoprenaline, i.v.) in systolic and diastolic left ventricular function, and TaqMan analyses of renal injury markers in the renal cortex.
# [2] = system: 5/6 nephrectomy rat model; experiment: Left-ventricular diastolic dysfunction under isoprenaline infusion in 5/6 nephrectomized rats; format: in vivo; conditions: 4 weeks
# From the text: as §1, §2, §3, §4, §5, §6, §7, §8, §9, §10
# [3] = system: unilaterally nephrectomized SHR; experiment: Functional and structural myocardial dysfunction in unilaterally nephrectomized spontaneously hypertensive rats; format: in vivo, rat; conditions: Group 5: SNX + 3.0 mg/kg body weight/day p.o., 4 weeks
# From the text: (§11) B-4. Effects of Partial A1 Agonists on Renal and Cardiac Function in Unilaterally Nephrectomized and Spontaneously Hypertensive Rats (Example 2 for Chronic Kidney Disorders)
# (§12) Unilaterally nephrectomized, spontaneously hypertensive rats (SHR) are an established animal model for investigating the development and progression of hypertensive damage of the glomeruli in the remaining kidney [H. Kinuno et al., “Effects of uninephrectomy on renal structural properties in spontaneously hypertensive rats”, Clin and Exp Pharmacol and Physiol 2005, 32, 173-178]. […] Furthermore, renal excretion of substances usually eliminated in the urine, such as creatinine and urea, is reduced and the electrolyte metabolism is disturbed, the latter being associated with volume retention.
# (§13) Procedure: male SHR rats (180-220 g) from Taconic had the left kidney removed in one session (=UNX). Normotensive Wistar Kyoto rats (WKY) from Taconic served as control. The following groups, each with 12 rats per group, were investigated:
# (§14) Group 2 UNX+placebo (60 g glycerol+100 g water+969 g PEG-400)
# (§15) Group 3 UNX+10 mg/kg body weight/day enalapril (reference therapy, in the drinking water)
# (§16) Group 4 SNX+1.0 mg/kg body weight/day partial A1 EXAMPLE 1, p.o. in placebo
# (§17) Group 5 SNX+3.0 mg/kg body weight/day partial A1 EXAMPLE 4, p.o. in placebo
# (§18) Three weeks after unilateral nephrectomy, the SHRs developed manifest hypertensive damage of the glomeruli in the remaining kidney, from this time point on the rats were treated for a further four weeks corresponding to the groups given above. At the end of the protocol, the following samples were obtained/measurements were carried out: eight-hour urine collection, invasive measurement of systolic and diastolic left ventricular function, and TaqMan analyses of renal injury markers in the renal cortex.
# [4] = system: unilaterally nephrectomized SHR; experiment: Functional and structural renal dysfunction in unilaterally nephrectomized spontaneously hypertensive rats; format: in vivo, rat; conditions: Group 5: SNX + 3.0 mg/kg body weight/day p.o., 4 weeks
# From the text: as §11, §12, §13, §14, §15, §16, §17, §18
# [5] = Group 6: SNX + 0.3 mg/kg body weight/day p.o.
# [6] = Group 7: SNX + 3.0 mg/kg body weight/day p.o.
compound,measurement,setting,value
"N#Cc1c(SCc2csc(-c3ccc(Cl)cc3)n2)nc(N2CCCC2)c(C#N)c1-c1ccc(OCCO)cc1 [EXAMPLE 4, 2-({[2-(4-Chlorophenyl)-1,3-thiazol-4-yl]methyl}sulphanyl)-4-[4-(2-hydroxyethoxy)phenyl]-6-(pyrrolidin-1-yl)pyridine-3,5-dicarbonitrile]",P-creatinine,[1]; [5],64 ± 1 µmol/L
same,P-urea,[1]; [5],11 ± 0.3 mmol/L
same,U-creatinine,[1]; [5],3.1 ± 0.2 μmol/ml urine/kg BW/h
same,U-protein,[1]; [5],1.70 ± 0.29 μmol/ml urine/kg BW/h
same,U-sodium,[1]; [5],19 ± 3 μmol/ml urine/kg BW/h
same,U-urea,[1]; [5],330 ± 25 μmol/ml urine/kg BW/h
same,Urine volume,[1]; [5],1.8 ± 0.1 ml/kg BW/h
same,End organ injury marker concentration in the urine: hFABP,[1]; [5],3125 ± 497 pg hFABP/ml urine/h
same,End organ injury marker concentration in the urine: hFABP per creatinine,[1]; [5],386 ± 57 pg hFABP/μmol creatinine
same,Kidney injury marker-1 [gene expression],[1]; [5],68 ± 14 rel. expression
same,Lipocalin-2 [gene expression],[1]; [5],340 ± 49 rel. expression
same,Osteopontin [gene expression],[1]; [5],6882 ± 1240 rel. expression
same,P-creatinine,[1]; [6],63 ± 1 µmol/L
same,P-urea,[1]; [6],11 ± 0.3 mmol/L
same,U-creatinine,[1]; [6],2.7 ± 0.3 μmol/ml urine/kg BW/h
same,U-protein,[1]; [6],0.97 ± 0.12 μmol/ml urine/kg BW/h
same,U-sodium,[1]; [6],43 ± 5 μmol/ml urine/kg BW/h
same,U-urea,[1]; [6],281 ± 30 μmol/ml urine/kg BW/h
same,Urine volume,[1]; [6],1.8 ± 0.2 ml/kg BW/h
same,End organ injury marker concentration in the urine: hFABP,[1]; [6],1706 ± 249 pg hFABP/ml urine/h
same,End organ injury marker concentration in the urine: hFABP per creatinine,[1]; [6],218 ± 39 pg hFABP/μmol creatinine
same,Kidney injury marker-1 [gene expression],[1]; [6],56 ± 18 rel. expression
same,Lipocalin-2 [gene expression],[1]; [6],283 ± 45 rel. expression
same,Osteopontin [gene expression],[1]; [6],6340 ± 1656 rel. expression
same,left-ventricular pressure decrease as a function of time,"[2]; isoprenaline 0 ng/kg body weight, Group 6: SNX + 0.3 mg/kg body weight/day p.o.",6518 ± 221 mmHg/s
same,left-ventricular pressure decrease as a function of time,"[2]; isoprenaline 0 ng/kg body weight, Group 7: SNX + 3.0 mg/kg body weight/day p.o.",6884 ± 383 mmHg/s
same,left-ventricular pressure decrease as a function of time,"[2]; isoprenaline 12.5 ng/kg body weight, Group 6: SNX + 0.3 mg/kg body weight/day p.o.",7733 ± 233 mmHg/s
same,left-ventricular pressure decrease as a function of time,"[2]; isoprenaline 12.5 ng/kg body weight, Group 7: SNX + 3.0 mg/kg body weight/day p.o.",8369 ± 395 mmHg/s
same,left-ventricular pressure decrease as a function of time,"[2]; isoprenaline 25 ng/kg body weight, Group 6: SNX + 0.3 mg/kg body weight/day p.o.",8001 ± 224 mmHg/s
same,left-ventricular pressure decrease as a function of time,"[2]; isoprenaline 25 ng/kg body weight, Group 7: SNX + 3.0 mg/kg body weight/day p.o.",8557 ± 396 mmHg/s
same,left-ventricular pressure decrease as a function of time,"[2]; isoprenaline 50 ng/kg body weight, Group 6: SNX + 0.3 mg/kg body weight/day p.o.",8763 ± 195 mmHg/s
same,left-ventricular pressure decrease as a function of time,"[2]; isoprenaline 50 ng/kg body weight, Group 7: SNX + 3.0 mg/kg body weight/day p.o.",9100 ± 341 mmHg/s
same,left-ventricular pressure decrease as a function of time,"[2]; isoprenaline 100 ng/kg body weight, Group 6: SNX + 0.3 mg/kg body weight/day p.o.",9621 ± 212 mmHg/s
same,left-ventricular pressure decrease as a function of time,"[2]; isoprenaline 100 ng/kg body weight, Group 7: SNX + 3.0 mg/kg body weight/day p.o.",10263 ± 294 mmHg/s
same,left-ventricular pressure decrease as a function of time,"[2]; isoprenaline 250 ng/kg body weight, Group 6: SNX + 0.3 mg/kg body weight/day p.o.",9968 ± 162 mmHg/s
same,left-ventricular pressure decrease as a function of time,"[2]; isoprenaline 250 ng/kg body weight, Group 7: SNX + 3.0 mg/kg body weight/day p.o.",10385 ± 352 mmHg/s
same,Diastolic blood pressure,[3],144 ± 6 mmHg
same,Heart rate,[3],326 ± 9 beats/min
same,"Left ventricular hypertrophy (LVS/RV ratio, mg/mg)",[3],4.5 ± 0.2 mg/mg
same,Left-ventricular end-diastolic pressure,[3],10.22 ± 1.6 mmHg
same,Left-ventricular pressure,[3],196 ± 5 mmHg
same,Pressure decrease over time,[3],−10680 ± 524 mmHg/s
same,Pressure increase over time,[3],9419 ± 383 mmHg/s
same,Systolic blood pressure,[3],205 ± 5 mmHg
same,P-creatinine,[4],58 ± 0.6 µmol/L
same,P-urea,[4],8.7 ± 0.2 mmol/L
same,U-creatinine,[4],3.4 ± 0.9 μmol/ml urine/kg BW/h
same,U-protein,[4],0.96 ± 0.26 μmol/ml urine/kg BW/h
same,U-sodium,[4],46 ± 11 μmol/ml urine/kg BW/h
same,U-urea,[4],337 ± 89 μmol/ml urine/kg BW/h
same,Urine volume,[4],1.8 ± 0.2 ml/kg BW/h
same,CYR61 [gene expression],[4]; renal cortex,274 ± 21 rel. expression
same,Lipocalin-2 [gene expression],[4]; renal cortex,119 ± 9 rel. expression
